Reference: patent US10213415B2, “Compounds as opioid receptor modulators” (JANSSEN PHARMACEUTICA NV, priority 2004, dated 2019)
Where two headings read alike, the source gives them in different places.

How the values were obtained:
[1] = molecular target: T1, delta opioid receptor (NG108-15 cell membranes) (Mus musculus, UniProt P32300); experiment: Delta Opioid Receptor Functional Assay: [35S]GTPγS Binding in NG108-15 Cell Membranes, Version 2; type: biochemical; settings: NG108-15 cell membranes, version 2
T1 construct: NG108-15 cell membranes were purchased from Applied Cell Sciences (Rockville, Md.); host or cells: NG108-15 cells (membranes purchased)
Experimental: NG108-15 cell membranes were purchased from Applied Cell Sciences (Rockville, Md.). 8 mg/ml of membrane protein suspended in 10 mM TRIS-HC pH 7.2, 2 mM EDTA, 10% sucrose.
(§1) Membranes were maintained at 4-8° C. A portion (1 ml) of membranes was added into 10 ml cold binding assay buffer. The assay buffer contained 50 mM Tris, pH 7.6, 5 mM MgCl2, 100 mM NaCl, 1 mM DTT and 1 mM EGTA. The membrane suspension was homogenized with a Polytron for 2 times and centrifuged at 3000 rpm for 10 min. The supernent was then centrifuged at 18,000 rpm for 20 min. The pellet was saved in a tube and 10 ml assay buffer was added into the tube. The pellet and buffer were mixed with a Polytron.
(§2) The pellet membranes (75 μg/ml) were preincubated with SPA (10 mg/ml) at 25° C. for 45 min in the assay buffer. The SPA (5 mg/ml) coupled with membranes (37.5 μg/ml) was then incubated with 0.1 nM [^35S] GTPγS in the same Tris buffer containing 100 μM GDP in total volume of 200 μl. Increasing concentrations of receptor agonists were used to stimulate [^35S] GTPγS binding. The basal binding was tested in the absent agonists and no specific binding was tested in the present 10 μM unlabeled GTPγS. The data were analyzed on a Top counter.
[formula] % Inhibition=(% stimulation by 1 μM SNC80−% stimulation by 1 μM SNC80 in presence of test compound)×100/(% Stimulation by 1 μM SNC80−100) % of Basal=(stimulate−non specific)*100/(basal−non specific). EC50 values were calculated using GraphPad Prism.

[2] = test system: male CD-1 mice; experiment: In Vivo Assay: Upper GI Tract Transit (MUGIT); settings: Mus musculus, po, 1 h, dose 30 (mg), p.o., read-out: upper GI transit (% ctrl)
Experimental: Methods: The animals used in these studies were male CD-1 mice, ave. wt. ˜30 g. Mice were housed under 12 h/12 h light/dark cycle, food & water ad lib. On the day of the experiment mice were assigned to experimental groups, including one vehicle-only group (=control). At 30 min before administration of carmine dye, animals were dosed with vehicle or vehicle-plus-compound, mice were returned to their home cages after drug administration. After administration of carmine, the animals were either returned to their home cages (non-stressed) or individually placed in the same metal cages as used in the fecal output or entire GI tract transit to induce a novel environment stress. One hour after administration of carmine, mice were sacrificed by cervical dislocation, the abdomen opened midventrally, the small intestine from pylorus to cecum was removed, the mesentery divided in order to lay the intestine straight & flat—without stretching. The total length of intestine and the length of carmine-dyed intestine were measured in order to determine the percent of the upper GI tract over which transit had occurred as follows: {(Length of carmine-dyed intestine)/(Total length of intestine)}×100=% upper GI transit. The data expressed were group means±SD (or s.e.m.) and data expressed as % of control.

[3] = molecular target: T2, delta opioid receptor (Rattus norvegicus, UniProt P33533); experiment: Rat Brain Delta Opioid Receptor Binding Assay ([3H]DPDPE); settings: rat forebrain membranes, margin of error 10-20%, read-out: r Ki δ
T2 construct: from tissue; host or cells: forebrain of male Wistar rats
Procedure, shortened: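 Rat (male Wistar) forebrain membranes in 50 mM Tris-HCl pH 7.4 with 5 mM MgCl2, incubated with ~4 nM [3H]DPDPE for 2.5 h at 25 °C. Bound ligand collected by filtration and scintillation counting. Single-concentration data given as % inhibition of specific binding; concentration series fitted to Ki.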

[4] = molecular target: T3, mu opioid receptor (Rattus norvegicus, UniProt P33535); experiment: Rat Brain Mu Opioid Receptor Binding Assay (and Version 2a, [3H]DAMGO); settings: rat forebrain membranes, margin of error 10-20%, read-out: r Ki μ
T3 construct: from tissue; host or cells: forebrain of male Wistar rats
Procedure, shortened: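 Displacement of the mu-selective radioligand [3H]DAMGO (0.8 nM) measured by filtration and scintillation counting after 2.5 h at 25° C. Membranes came from male Wistar rat forebrain in Tris-HCl (50 mM, pH 7.4) plus 5 mM MgCl2; Ki derived from concentration–response, % inhibition for single doses.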

[5] = molecular target: T4, human mu opioid receptor (Homo sapiens, UniProt P35372); experiment: Human Mu Opioid Receptor Binding Assay (CHO membranes, 3H-Damgo); settings: read-out: hKi μ
T4 construct: purchased Perkin Elmer RBHOMM400UA; host or cells: Chinese Hamster Ovary cells (recombinant expression)
Procedure, shortened: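 Radioligand displacement of ³H-Damgo (diluted to 3.6 nM pre-mix) from recombinant human mu receptor in CHO membranes, 2 h, room temperature, 50 mM Tris pH 7.5 with 5 mM MgCl2. Bound label read by filtration and scintillation counting; 1 μM unlabelled Damgo defines nonspecific binding.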

[6] = molecular target: T5, human delta subtype 2 opioid receptor (Homo sapiens, UniProt P41143); experiment: Human Delta Opioid Receptor Binding Assay (CHO membranes, 3H-Naltrindole); settings: read-out: hKi δ
T5 construct: purchased Perkin Elmer RBHODM400UA; host or cells: Chinese Hamster Ovary cells (recombinant expression)
Procedure, shortened: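 Compound displacement of tritiated naltrindole (6 nM working dilution) measured by scintillation counting after GF/C filtration. Receptor source: recombinant CHO membranes; buffer 50 mM Tris, 5 mM MgCl2, pH 7.5; 30 min room-temperature incubation. 1 μM cold naltrindole sets nonspecific binding.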

[7] = molecular target: T6, mu opioid receptor (CHO-hMOR cell membranes) (Homo sapiens, UniProt P35372); experiment: Mu Opioid Receptor Functional Assay: [35S]GTPγS Binding in CHO-hMOR Cell Membranes, Versions 1 and 2; type: biochemical; settings: for MOR GTP binding assay_v1 (% I): version 1, % inhibition of agonist-stimulated GTPγS binding; for MOR GTP assay_v1 % of Basal: version 1, basal binding = 100%
T6 construct: purchased Receptor Biology, Inc. (Baltimore, Md.); host or cells: CHO cells (recombinant expression)
Procedure, shortened: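 Agonist-stimulated [35S]GTPγS (0.5 nM) binding measured by SPA in human MOR CHO membranes, buffer pH 7.6 with 100 mM NaCl, 5 mM MgCl2. Antagonist mode: % inhibition of stimulation by 1 μM SNC80; agonist mode: EC50 fitted. Basal binding without agonist, non-specific with 10 μM cold GTPγS.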

[8] = molecular target: T7, delta opioid receptor (CHO-hδ cell membranes) (Homo sapiens, UniProt P41143); experiment: Delta Opioid Receptor Functional Assay: [35S]GTPγS Binding in CHO-hδ Cell Membranes, Version 1; type: biochemical; settings: read-out: DOR GTP-binding Assay_v1 EC50
T7 construct: purchased Receptor Biology, Inc. (Baltimore, Md.); host or cells: CHO cells (recombinant expression)
Experimental: CHO-hδ cell membranes were purchased from Receptor Biology, Inc. (Baltimore, Md.). 10 mg/ml of membrane protein suspended in 10 mM TRIS-HC pH 7.2, 2 mM EDTA, 10% sucrose.
as §1, with “into 15 mL” for “into 10 ml”, “mM HEPES,” for “mM Tris,”, “mM EDTA.” for “mM EGTA.”
as §2, with “(20” for “(75”, “(10” for “(37.5”, “0.5” for “0.1”, “[^35S]GTPγS” for “[^35S] GTPγS”, “HEPES” for “Tris”, “50” for “100”
Data The % of Basal=(stimulate−non specific)*100/(basal−non specific). EC50 values were calculated using a Prism program.

[9] = test system: novel environment-stressed mice; experiment: In Vivo Assay-Stress-Induced Fecal Output (Fecal Output for 1 hr); design: species or system mouse; settings: 1 hr; for Fecal Output (# pellets) cpd: novel environment-stressed mice; for response vs control in vivo at 10 mg/kg / response vs control in vivo at 30 mg/kg: Mus musculus, po, 1 h
Procedure, shortened: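 Adult male Crl:CD-1(ICR) mice (˜30-35 g; at least 10 per dose group) were split into acclimated non-stressed controls, held individually for 16-18 hr in wire-mesh-bottom cages, and non-acclimated stressed groups. Mice were dosed intragastrically with vehicle or test compound in 0.5% methylcellulose, housed individually in novel cages over absorbent cardboard, and fecal pellets per mouse were counted hourly.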

T4 sequence (P35372 whole entry): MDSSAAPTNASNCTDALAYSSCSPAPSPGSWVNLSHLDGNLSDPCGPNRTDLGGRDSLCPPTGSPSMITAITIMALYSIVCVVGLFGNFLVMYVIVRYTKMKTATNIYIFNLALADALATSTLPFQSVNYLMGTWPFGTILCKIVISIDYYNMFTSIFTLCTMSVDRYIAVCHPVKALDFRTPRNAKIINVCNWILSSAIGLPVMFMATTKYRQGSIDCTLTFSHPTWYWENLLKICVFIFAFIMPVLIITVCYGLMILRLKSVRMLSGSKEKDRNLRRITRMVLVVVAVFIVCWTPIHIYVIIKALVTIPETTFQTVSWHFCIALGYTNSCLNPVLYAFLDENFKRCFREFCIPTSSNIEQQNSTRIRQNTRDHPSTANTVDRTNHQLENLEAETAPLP
T6 sequence (P35372 whole entry): as above
T5 sequence (P41143 whole entry): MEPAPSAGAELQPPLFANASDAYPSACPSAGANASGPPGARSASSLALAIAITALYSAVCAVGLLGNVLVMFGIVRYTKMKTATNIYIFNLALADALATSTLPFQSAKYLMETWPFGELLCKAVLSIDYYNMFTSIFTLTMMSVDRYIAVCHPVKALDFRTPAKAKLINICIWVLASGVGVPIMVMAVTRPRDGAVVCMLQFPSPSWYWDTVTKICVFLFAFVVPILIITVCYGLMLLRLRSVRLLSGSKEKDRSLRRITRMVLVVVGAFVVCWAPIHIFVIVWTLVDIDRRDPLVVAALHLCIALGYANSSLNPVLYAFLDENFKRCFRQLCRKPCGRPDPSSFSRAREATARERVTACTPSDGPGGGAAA
T7 sequence (P41143 whole entry): as above
T2 sequence (P33533 whole entry): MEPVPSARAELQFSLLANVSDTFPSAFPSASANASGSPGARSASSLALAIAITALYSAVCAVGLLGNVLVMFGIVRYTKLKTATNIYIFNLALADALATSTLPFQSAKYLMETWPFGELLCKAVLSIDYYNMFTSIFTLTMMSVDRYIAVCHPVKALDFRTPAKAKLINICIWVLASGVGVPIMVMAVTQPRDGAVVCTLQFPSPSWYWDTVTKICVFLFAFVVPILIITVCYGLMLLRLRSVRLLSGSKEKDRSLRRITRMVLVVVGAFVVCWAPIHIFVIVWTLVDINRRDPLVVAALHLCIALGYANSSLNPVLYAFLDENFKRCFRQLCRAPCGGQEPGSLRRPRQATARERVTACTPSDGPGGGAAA
T3 sequence (P33535 whole entry): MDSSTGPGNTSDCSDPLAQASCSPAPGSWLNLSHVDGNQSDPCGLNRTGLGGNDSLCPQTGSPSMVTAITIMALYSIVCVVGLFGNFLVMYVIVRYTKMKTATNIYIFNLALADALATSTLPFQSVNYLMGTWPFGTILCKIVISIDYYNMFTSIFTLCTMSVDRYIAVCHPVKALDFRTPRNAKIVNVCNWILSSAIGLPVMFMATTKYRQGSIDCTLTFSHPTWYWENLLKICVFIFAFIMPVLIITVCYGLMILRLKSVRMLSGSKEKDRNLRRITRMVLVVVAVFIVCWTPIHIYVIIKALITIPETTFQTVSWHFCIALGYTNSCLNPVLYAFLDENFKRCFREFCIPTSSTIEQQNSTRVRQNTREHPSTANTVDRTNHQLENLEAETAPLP
T1 sequence (P32300 whole entry): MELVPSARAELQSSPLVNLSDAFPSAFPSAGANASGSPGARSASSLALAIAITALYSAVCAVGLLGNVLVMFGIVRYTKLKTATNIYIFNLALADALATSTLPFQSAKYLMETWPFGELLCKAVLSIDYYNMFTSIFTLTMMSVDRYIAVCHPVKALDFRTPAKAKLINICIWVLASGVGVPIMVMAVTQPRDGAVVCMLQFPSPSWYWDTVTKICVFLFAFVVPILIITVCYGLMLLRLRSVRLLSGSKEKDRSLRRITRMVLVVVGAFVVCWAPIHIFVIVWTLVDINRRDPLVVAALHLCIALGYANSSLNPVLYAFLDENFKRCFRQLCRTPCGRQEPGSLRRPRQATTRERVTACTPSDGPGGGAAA

SMILES	Ki [6]	MOR GTP binding assay_v1 (% I) [7]	MOR GTP assay_v1 % of Basal [7]	EC50 [8]	other results
Cc1cc(O)cc(C)c1C[C@H](N)C(=O)N(Cc1ccc(C(=O)O)o1)[C@@H](C)c1nc(-c2ccccc2)c[nH]1 [Cpd 287]					EC50 ([1]; [35S]GTPγS, read-out: DOR GTP-binding Assay_v2_ EC50): > 10 µM; DOR GTP-binding Assay v2 (% I) ([1]; % inhibition of agonist-stimulated GTPγS binding): 84.50%; response vs control in vivo at 30 mg [2]: 66.4%; Ki [3]: 0.00014 µM; Ki [4]: 0.00013 µM
Cc1cc(O)cc(C)c1C[C@H](N)C(=O)N(Cc1nc(-c2cncnc2)c(C)[nH]1)C(C)C [Cpd 131]	0.675 µM	28.64%	391.98%	0.099 µM	Ki [5]: 0.0031 µM
Cc1cc(O)cc(C)c1C[C@H](N)C(=O)N(Cc1nc(-c2cccc(CO)c2)c(C)[nH]1)C(C)C [Cpd 130]	0.712 µM	1.62%	866.39%	0.016 µM	Ki [5]: 0.0016 µM
Cc1cc(C(N)=O)cc(C)c1C[C@H](N)C(=O)N(C)[C@@H](C)c1nc(-c2ccccc2)c[nH]1 [Cpd 196]		1.00%	620.00%	0.024 µM	Fecal Output (# pellets) cpd ([9]; 10 mg/kg oral): 9.2 pellets; Fecal Output (# pellets) cpd ([9]; 30 mg/kg oral): 4.3 pellets; response vs control in vivo at 10 mg/kg ([9]; 10 mg/kg oral, relative to acclimated control, read-out: Fecal Output cpd % control): 249%; response vs control in vivo at 10 mg/kg ([9]; 10 mg/kg oral, relative to novel environment stress (NES) vehicle group, read-out: Fecal Output cpd % NES): 65.7%; response vs control in vivo at 30 mg/kg ([9]; 30 mg/kg oral, relative to acclimated control, read-out: Fecal Output cpd % control): 391%; response vs control in vivo at 30 mg/kg ([9]; 30 mg/kg oral, relative to novel environment stress (NES) vehicle group, read-out: Fecal Output cpd % NES): 45.3%
Cc1cc(O)cc(C)c1C[C@H](N)C(=O)N(Cc1nc(-c2ccc(Cl)cc2)c(C)[nH]1)C(C)C [Cpd 147]	0.241 µM	1.00%	779.35%	0.051 µM	
Cc1cc(O)cc(C)c1C[C@H](N)C(=O)N(Cc1nc(-c2ccccc2C(F)(F)F)c(C)[nH]1)C(C)C [Cpd 151]	1.29 µM	24.19%	606.38%	0.35 µM	
Cc1cc(O)cc(C)c1C[C@H](N)C(=O)N(Cc1nc(-c2ccccc2Cl)c(C)[nH]1)C(C)C [Cpd 155]	0.345 µM	14.32%	655.93%	0.15 µM	
Cc1cc(O)cc(C)c1C[C@H](N)C(=O)N(Cc1nc(-c2ccccc2F)c(C)[nH]1)C(C)C [Cpd 117]	0.118 µM	3.31%	816.16%	0.037 µM	Ki [5]: 0.00024 µM
CCN(C(=O)[C@@H](N)Cc1c(C)cc(O)cc1C)[C@H](c1nc(-c2ccccc2)c[nH]1)C(C)C [Cpd 170]		26.00%		0.115 µM	Ki [3]: 0.0326 µM; Ki [4]: 0.00048 µM
CCN(C(=O)[C@@H](N)Cc1c(C)cc(C(N)=O)cc1C)[C@@H](C)c1nc(-c2ccccc2)c[nH]1 [Cpd 197]		1.00%	582.00%	0.14 µM	Ki [3]: 0.00427 µM; Ki [4]: 0.0009 µM
Cc1cc(O)cc(C)c1C[C@H](N)C(=O)N(Cc1nc(-c2ccsc2)c(C)[nH]1)C(C)C [Cpd 146]	0.071 µM	2.79%	740.77%	0.027 µM	
Cc1cc(O)cc(C)c1C[C@H](N)C(=O)N(Cc1nc(-c2ccc3ccccc3c2)c(C)[nH]1)C(C)C [Cpd 150]	0.992 µM	53.35%	476.63%	0.049 µM	
Cc1cc(O)cc(C)c1C[C@H](N)C(=O)N(Cc1nc(-c2ccc(C(F)(F)F)cc2)c(C)[nH]1)C(C)C [Cpd 149]	0.408 µM	1.00%	753.53%	0.044 µM	
C[C@@H](c1nc(-c2ccccc2)c[nH]1)N(C)C(=O)[C@@H](N)Cc1ccc(C(N)=O)cc1 [Cpd 202]		1.00%	529.00%	1.58 µM	Ki [3]: 0.0315 µM; Ki [4]: 0.0059 µM
